Experimental data as given in paper PMC11655744, “Antioxidant, anti-acetylcholinesterase, and anti-amyloid-β peptide aggregations of hispolon and its analogs in vitro and improved learning and memory functions in scopolamine-induced ICR mice” (Botanical Studies, 2024).
Values joined by “and” are separate entries in the source; they are usually repeats but may differ in a detail not shown here. Identical values can stand only once. Counter-ions that a name gives are not always drawn.

Experiments:
recombinant human AChE = target: T1, recombinant human AChE (Homo sapiens, UniProt P22303); assay: biochemical; settings: pH 7.5, tested at 125 to 1000 µM, read-out: AChE inhibitory activity IC50
T1 construct: purchased R&D Systems Inc. (Minneapolis, MN)
Procedure: The AChE substrates of acetylthiocholine iodide was added for another 15 min, and the DTNB coupling reagents was added and the mixture was recorded at 405 nm for 10 min. The DMSO instead of sample solution was used as the blank. AChE inhibition (%) was calculated by [(A405blank-A405sample)/(A405blank)] ×100%.

Aβ1-42 peptide = target: T2, Aβ1-42 peptide (Homo sapiens, UniProt P05067); assay: Anti-Aβ1-42 peptide aggregation, thioflavin T binding assay; format: biochemical; settings: 10 µM Aβ1-42, 10 µM ThT, 37 °C, 24 h; read-out: IC50 of anti-Aβ1-42 peptide aggregations
T2 construct: The preparation of Aβ1–42 peptide stock solution was following the previous report; purchased Sigma Chemical Co. (St. Louis, MO)
Procedure: The DMSO was used instead of the sample solution as the control. […] The inhibition against Aβ aggregation (%) was calculated as [(Econtrol,24−h-Econtrol,0−h)- (Esample,24−h-Esample,0−h)/(Econtrol,24 h-Econtrol,0−h)] ×100%.

[1] = DPPH radical scavenging activity; format: biochemical; settings: 100 µM DPPH in methanol, 20 min, A517nm; IC50 from linear equation of 20, 50 and 100 µM; read-out: IC50 of DPPH radical scavenging activities
Procedure: The 60 µL of different concentrations of samples (10, 20, 50, 100, 150, and 200 µM diluted with DMSO) were added into a 96-well plate, and then 140 µl of 100 µM DPPH in methanol was added under light protection for 20 min. The changes of absorbance at A517nm were measured, and DMSO was used instead of a sample solution in the control group. The scavenging activity of the DPPH radical (%) was calculated with the following equation: (Control-sample)/control ×100%.

RAW264.7 macrophages [2] = assay: Anti-nitric oxide productions in lipopolysaccharide-treated RAW264.7 macrophages (Griess); format: cell-based; settings: 2.5 µM, 24 h pre-treatment, then LPS 500 ng/ml 24 h
Procedure: (§1) The 5 × 10^4 macrophages/well were seeded in the 96-well plate and cultured for 24 h at 37 °C under the humidified atmosphere and 5% CO2. The cells were pre-treated with hispolon (No.1, 2.5, 5, 10, and 20 µM), No.2, No.3, No.4, and No.5 (5, 10, and 20 µM), and No.6 and No.7 (5, 10, 20, and 40 µM) for 24 h. The LPS (500 ng/ml) was then added to the pre-treated RAW264.7 macrophages for another 24 h for nitric oxide productions. For nitric oxide productions in LPS-treated RAW264.7 macrophages, the culture supernatant (100 µl) was mixed with 100 µl of Griess reagent at room temperature for 30 min. The absorbance at 550 nm was measured and expressed as relative nitric oxide productions (the control was recognized as 100%). […] The sample pretreated-RAW264.7 cells were stained with MTT solution (500 µg/mL), which the formazan was dissolved by 200 µL DMSO, and the absorbance at 570 nm was measured, and was expressed relative to the blank (%).

[3] = system: scopolamine-induced ICR mice; assay: Passive avoidance test in scopolamine-induced cognitive dysfunction ICR mice; format: in vivo; settings: scopolamine 1 mg/kg i.p., P < 0.05
Excerpt: The 5-week-old (N = 30) male ICR mice were purchased from the Laboratory Animal Center in College of Medicine, National Taiwan University, and were housed in wire-bottomed stainless-steel cages and had free access to normal feeds (Prolab^Ⓡ RMH2500, MO) and water, which these cages were placed in an environmental controlled space under a 12-h light/dark cycle. After at least one-week acclimation, the mice were randomly divided into six groups, including the blank, the control, the positive control (donepezil-intervened), and the sample pre-treated groups (No.1, No.6, and No.7 groups). […] For mice in the blank, the control, and the positive control, mice were orally received the same volume of distilled water once daily for 10 days in the parallel experiments. In the second stage of animal experiments during day 11 to day 15, mice in the blank, the control, and the sample groups were treated as reported in the first stage, and mice in the positive control group were treated with donepezil (5 mg/kg) orally once a day by gavage feeding, and 30 min later, mice in the control, sample groups, and positive control were injected intraperitoneally with scopolamine (1 mg/kg, dissolved in PBS), and mice in the blank were injected with the same volume of PBS. At day 13 to day 15, after being injected with scopolamine or the same volume of PBS for 30 min, mice in each group were evaluated learning behaviours by the passive avoidance test. The passive avoidance apparatus, a computerized chamber (PACS-30, Columbus Instruments Inc., Columbus, OH) separated by a sliding guillotine door, is composed of a LED light box and a dark box. At the first day of the acquisition trial (day 13), the guillotine door was opened and each mouse was placed in the LED light box. In case the mouse entered the dark box, the automatic and computerized sliding guillotine door was closed, the entered mouse in the dark box received an electric foot shock (0.3 mA for 3 s) delivered via the wired metal floor and then sent back to the cage. The staying time in the light box (the step-through latency, sec) was recorded. The protocol in the second day (day 14) was the same as the first day. If the mouse stayed in the light box longer than 300 s, and the mouse was expelled into light box and received the same electric foot shocks. At the third day (day 15) of the retention trial, each mouse was placed again in the light box, and the staying time in the light box was recorded. The maximum time was 300 s.

PC12 cells = assay: Neurite outgrowths in PC12 pheochromocytoma cells; format: cell-based, rat; settings: 3-day treatment, blank 3.62 ± 1.62 μm
Procedure: The PC12 cells (5 × 10^3/well) were seeded in poly-L-lysine coated 96-well plate and cultured in RPMI-640 medium supplemented with 10% horse serum, 5% FBS, 100 U/ml penicillin and 100 mg/l streptomycin for 24 h at 37 °C under the humidified atmosphere and 5% CO2. […] The DMSO was used instead of the sample solution as the blank. After an interval of 3 days, the cell morphologies were photographed using an inverted microscope (200-fold magnifications, ECLIPSE TS100, Nikon Instruments Inc., Tokyo, Japan).

RAW264.7 macrophages [4] = assay: Cell viability of RAW264.7 macrophages (MTT)
Procedure: as §1

[5] = system: SH-SY5Y neuroblastoma cells; assay: Neuroprotective activity in methylglyoxal-treated SH-SY5Y neuronal cells (MTT, morphology); format: cell-based; settings: for cell viabilities of methylglyoxal-treated SH-SY5Y cells compared to the control: 24 h pre-treatment, then 500 µM methylglyoxal 24 h, MTT; for morphologies of methylglyoxal-treated SH-SY5Y cells: 10 µM, 500 µM methylglyoxal, photographs, 200-fold
Procedure: The SH-SY5Y cells (1 × 10^4 cells/well) were seeded onto a 96-well microplate and cultured in a DMEM/F-12 medium containing 10% FBS for 24 h at 37 °C under a humidified atmosphere and 5% CO2. The cultural medium was removed, and the different concentrations of hispolon (No.1), No.6, and No.7 or 0.1% DMSO (the control and the blank) were added and incubated at 37 °C in a humidified atmosphere with 5% CO2 for 24 h. The treated medium was removed, washed with PBS, and 500 µM MGO in PBS were added to the medium for another 24 h culture. The equal aliquot of PBS was added in the blank.

soluble Aβ protofibrils = settings: intravenously every 2 weeks, 10 mg/kg of body weight, 18 months; ref van Dyck et al. [2023]; cited from earlier work
[6] = 40 mg/kg orally once daily, 10-day pre-treatment and days 11-15

T2 sequence (P05067 672-713): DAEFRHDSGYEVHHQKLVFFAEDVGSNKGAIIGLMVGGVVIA
T1 sequence (P22303 32-614): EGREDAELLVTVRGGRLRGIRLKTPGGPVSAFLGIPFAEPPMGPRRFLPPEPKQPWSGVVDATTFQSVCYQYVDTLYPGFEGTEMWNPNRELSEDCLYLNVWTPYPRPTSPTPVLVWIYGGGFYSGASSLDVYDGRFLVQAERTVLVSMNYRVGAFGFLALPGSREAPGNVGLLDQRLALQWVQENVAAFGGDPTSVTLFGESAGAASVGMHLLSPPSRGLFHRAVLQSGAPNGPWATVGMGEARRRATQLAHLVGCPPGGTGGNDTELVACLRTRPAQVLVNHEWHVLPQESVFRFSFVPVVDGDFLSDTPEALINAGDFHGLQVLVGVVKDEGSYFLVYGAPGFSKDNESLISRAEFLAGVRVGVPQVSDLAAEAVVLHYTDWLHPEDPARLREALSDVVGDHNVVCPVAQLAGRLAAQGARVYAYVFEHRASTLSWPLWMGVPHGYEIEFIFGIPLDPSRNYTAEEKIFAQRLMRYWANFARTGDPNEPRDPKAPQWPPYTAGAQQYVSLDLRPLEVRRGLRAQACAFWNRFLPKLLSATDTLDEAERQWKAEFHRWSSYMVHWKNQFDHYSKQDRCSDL

Row | Molecule | IC50 (recombinant human AChE) [µM] | IC50 (Aβ1-42 peptide) | IC50 [1] [µM] | step-through latency in the retention trial (day 15) compared to the control [3, 6] | average neurite lengths of PC12 cells (PC12 cells; 1 µM) [μm] | average neurite lengths of PC12 cells (PC12 cells; 2 µM) [μm] | further results
1 | CC(=O)CC(=O)/C=C/c1ccc(O)c(O)c1 [No.1, Hispolon] | 828 | 1.41 µM | 32.3 | prolong the staying time in the light box | 8.02 ± 3.14 | 8.49 ± 3.61 | relative nitric oxide productions (control = 100%) (RAW264.7 macrophages [2]): 70%; cytotoxicity toward RAW264.7 macrophages (RAW264.7 macrophages [4]; 2.5 µM): no apparent toxicities; cytotoxicity toward RAW264.7 macrophages (RAW264.7 macrophages [4]; 5, 10 and 20 µM): showed cytotoxicities toward RAW264.7 macrophages; cell viabilities of methylglyoxal-treated SH-SY5Y cells compared to the control ([5]; 5 and 10 µM): no significant difference was found compared to those in the control
2 | CC(=O)CC(=O)/C=C/c1cc(O)c(O)c(O)c1 [No.2, 5-hydroxy hispolon] | > 1000 | 0.34 µM and 0.335 µM | 28.3 | – | – | – | –
3 | COc1cc(/C=C/C(=O)CC(C)=O)cc(O)c1O [No.3, 5-methoxyhispolon] | > 1000 | 0.35 µM and 0.354 µM | 21 | – | – | – | –
4 | COc1cc(/C=C/C(=O)CC(C)=O)cc(OC)c1O [No.4, 5-methoxyhispolon monomethyl ether] | > 1000 | 12.4 µM | 79.4 | – | – | – | –
5 | COc1cc(/C=C/C(=O)CC(C)=O)cc(OC)c1OC [No.5, 5-methoxyhispolon dimethyl ether] | > 1000 | > 20 µM | > 100 | – | – | – | –
6 | CC(=O)CC(=O)/C=C/c1ccc(O)c(O)c1O [No.6, 2-hydroxy hispolon] | 286 | 1.03 µM | 38.2 | prolong the staying time in the light box | 8.50 ± 3.48 | 7.01 ± 3.11 | morphologies of methylglyoxal-treated SH-SY5Y cells [5]: recover parts of methylglyoxal-damaged neuritic lengths and restore pyramidal shapes; cell viabilities of methylglyoxal-treated SH-SY5Y cells compared to the control ([5]; 1, 2, 5 and 10 µM): had significant differences compared to those in the control
7 | COc1c(O)ccc(/C=C/C(=O)CC(C)=O)c1O [No.7, 2-hydroxy hispolon monomethyl ether] | > 1000 | 0.95 µM and 0.953 µM | 37.3 | prolong the staying time in the light box | 5.40 ± 1.96 | 8.05 ± 4.69 | morphologies of methylglyoxal-treated SH-SY5Y cells [5]: recover parts of methylglyoxal-damaged neuritic lengths and restore pyramidal shapes; cell viabilities of methylglyoxal-treated SH-SY5Y cells compared to the control ([5]; 1, 2, 5 and 10 µM): had significant differences compared to those in the control
8 | COc1cc2c(cc1OC)C(=O)C(CC1CCN(Cc3ccccc3)CC1)C2 (centres unmarked) [donepezil, donepezil hydrochloride, reference compound] | – | – | – | – | – | – | step-through latency in the retention trial (day 15) compared to the control ([3]; 5 mg/kg orally once a day, days 11-15, positive control): prolong the staying time in the light box
9 | NGF | – | – | – | – | – | – | average neurite lengths of PC12 cells (PC12 cells; 100 ng/ml, positive control): 9.18 ± 4.87 μm
10 | lecanemab (antibody, chains of the INN, looked up, V domains shown) VH: EVQLVESGGGLVQPGGSLRLSCSASGFTFSSFGMHWVRQAPGKGLEWVAYISSGSSTIYYGDTVKGRFTISRDNAKNSLFLQMSSLRAEDTAVYYCAREGGYYYGRSYYTMDYWGQGTTVTVSS VL: DVVMTQSPLSLPVTPGAPASISCRSSQSIVHSNGNTYLEWYLQKPGQSPKLLIYKVSNRFSGVPDRFSGSGSGTDFTLRISRVEAEDVGIYYCFQGSHVPPTFGPGTKLEIK | – | – | – | – | – | – | less cognitive decline in CDR-SB change between baseline and last visit compared to placebo (soluble Aβ protofibrils): 27%
